Here are results for 35 compounds from patent US20260152487A1 (Sitryx Therapeutics Limited, priority 2021, published 2026).

What is called Emax is the size of the effect at its maximum, as opposed to the concentration needed. Broadly, the EC50 is the midpoint of the concentration-response curve.

This experiment addresses T1, recombinant human PKM2 (Homo sapiens, UniProt P14618).
T1 construct: His (N); purchased R&D Systems
As to the kind of experiment: Human PKM2 activation assay (Kinase-Glo Plus luminescent detection of generated ATP). The class given is biochemical. Conditions: for Emax: percentage activation normalised to DMSO vehicle (LOW) and 5 μM TEPP-46 (HIGH), read-out: hPKM2 Emax; for EC50: recombinant human PKM2 activation, 4-parameter logistic fit, read-out: hPKM2 EC50. Put shortly:
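N-His-tagged recombinant hPKM2 ([…]) with PEP and ADP was incubated with compound for 60 min at 26 °C, shaking, in 50 mM imidazole, 50 mM KCl, 7 mM MgCl2, 0.01% Tween20, 0.05% BSA, pH 7.2. ATP produced was read by Kinase-Glo Plus luminescence after 15 min.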

T1 sequence (P14618 2-531 limits assumed): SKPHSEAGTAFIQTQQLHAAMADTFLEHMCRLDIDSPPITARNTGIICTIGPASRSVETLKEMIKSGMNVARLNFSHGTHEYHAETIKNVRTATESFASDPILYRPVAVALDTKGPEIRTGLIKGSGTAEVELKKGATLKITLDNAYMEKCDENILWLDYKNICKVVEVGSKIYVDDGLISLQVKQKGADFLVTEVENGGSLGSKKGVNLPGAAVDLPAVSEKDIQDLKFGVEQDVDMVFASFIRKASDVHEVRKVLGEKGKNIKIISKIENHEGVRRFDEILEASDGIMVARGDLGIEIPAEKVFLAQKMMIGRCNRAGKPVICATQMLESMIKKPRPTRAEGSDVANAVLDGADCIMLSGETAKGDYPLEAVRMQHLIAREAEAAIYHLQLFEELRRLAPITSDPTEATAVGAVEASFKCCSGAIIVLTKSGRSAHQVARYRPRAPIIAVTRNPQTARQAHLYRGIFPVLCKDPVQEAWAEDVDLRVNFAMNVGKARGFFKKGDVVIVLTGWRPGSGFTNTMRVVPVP

Take `O=c1c2ccc(S(=O)(=O)c3cc4c(cn3)OCCO4)cc2cnn1Cc1cc[nH]n1` [Example 230, 2-((1H-pyrazol-3-yl)methyl)-6-((2,3-dihydro-[1,4]dioxino[2,3-c]pyridin-7-yl)sulfonyl)phthalazin-1(2H)-one]: the Emax amounted to 118% and the EC50 was 183 nM.

Take `COc1ccc(S(=O)(=O)c2ccc3c(=O)n(Cc4ccn(CCO)n4)ncc3c2)cn1` [Example 285, 2-((1-(2-hydroxyethyl)-1H-pyrazol-3-yl)methyl)-6-((6-methoxypyridin-3-yl)sulfonyl)phthalazin-1(2H)-one]: the maximum response (Emax) was determined as 98.4% and the EC50 turned out to be 217 nM.

Regarding `Cc1cn(CCO)nc1Cn1ncc2cc(S(=O)(=O)c3ccccc3)ccc2c1=O` [Example 16, 2-((1-(2-hydroxyethyl)-4-methyl-1H-pyrazol-3-yl)methyl)-6-(phenylsulfonyl)phthalazin-1(2H)-one], the Emax came out at 92.6% and the EC50 was found to be 154 nM.

Regarding `O=c1c2ccc(S(=O)(=O)c3ccc4sccc4c3)cc2cnn1Cc1cc[nH]n1` [Example 227, 2-((1H-pyrazol-3-yl)methyl)-6-(benzo[b]thiophen-5-ylsulfonyl)phthalazin-1(2H)-one], the Emax was 115% and the EC50 stood at 35.4 nM.

In the case of `COC(C)c1nc(S(=O)(=O)c2ccc3c(=O)n(Cc4ccc5c(n4)CCO5)ncc3c2)cs1` (stereo not shown) [Example 350], the Emax is 94.9% and the EC50 is 36.7 nM.

As for `Cn1ccc(Cn2ncc3cc(S(=O)(=O)c4ccc(OC(F)(F)F)cc4)ccc3c2=O)n1` [Example 218, 20((1-methyl-1H-pyrazol-3-yl)methyl)-6-((4-(trifluoromethoxy)phenyl)sulfonyl)phthalazin-1(2H)-one], the Emax amounted to 116% and the EC50 came out at 192 nM.

Regarding `O=c1c2ccc(S(=O)(=O)c3cc[nH]n3)cc2cnn1Cc1ccn(C2CC2)n1` [Example 339], the Emax worked out at 110% and the EC50 was found to be 67.8 nM.

`Nc1cccc(Cn2ncc3cc(S(=O)(=O)c4ccc5c(c4)CCO5)ccc3c2=O)c1` [Example 143, 2-(3-aminobenzyl)-6-((2,3-dihydrobenzofuran-5-yl)sulfonyl)phthalazin-1(2H)-one]: the Emax was 104% and the EC50 was found to be 27.7 nM.

Regarding `O=c1c2ccc(S(=O)(=O)c3cc[nH]n3)cc2cnn1Cc1cccc(C2CC2)n1` [Example 302], the Emax came to 104% and the EC50 came to 119 nM.

As to `COc1ccc(Cn2ncc3cc(S(=O)(=O)c4cc(C)ns4)ccc3c2=O)cn1` [Example 148, 2-((6-methoxypyridin-3-yl)methyl)-6-(3-methylisothiazol-5-ylsulfonyl)phthalazin-1(2H)-one], the Emax is 71.3% and the EC50 worked out at 58.4 nM.

As for `O=c1c2ccc(S(=O)(=O)c3ccccc3)cc2cnn1Cc1cnc2ccccn12` [Example 261, 2-(imidazo[1,2-a]pyridin-3-ylmethyl)-6-(phenylsulfonyl)phthalazin-1(2H)-one], the Emax was 68% and the EC50 came out at 216 nM.

As for `COc1ccc(F)c(Cn2ncc3cc(S(=O)(=O)c4ccn(C)n4)ccc3c2=O)c1` [Example 199, 2-(2-fluoro-5-methoxybenzyl)-6-((1-methyl-1H-pyrazol-3-yl)sulfonyl)phthalazin-1(2H)-one], the Emax worked out at 91.4% and the EC50 was 109 nM.

Take `COc1ccc(Cn2ncc3cc(OC4(c5ccccc5)COC4)ncc3c2=O)cn1` [Example 125, 3-((6-methoxypyridin-3-yl)methyl)-7-((3-phenyloxetan-3-yl)oxy)pyrido[3,4-d]pyridazin-4(3H)-one]: the Emax stood at 88.8% and the EC50 is 458 nM.

`Cn1cc(S(=O)(=O)c2ccc3c(=O)n(Cc4cccnc4O)ncc3c2)cn1` [Example 200, 2-((2-hydroxypyridin-3-yl)methyl)-6-((1-methyl-1H-pyrazol-4-yl)sulfonyl)phthalazin-1(2H)-one]: the maximal effect (Emax) was 80.2% and the EC50 stood at 621 nM.

In the case of `COCCn1cc(S(=O)(=O)c2ccc3c(=O)n(Cc4cc[nH]n4)ncc3c2)cn1` [Example 281, 2-((1H-pyrazol-3-yl)methyl)-6-((1-(2-methoxyethyl)-1H-pyrazol-4-yl)sulfonyl)phthalazin-1(2H)-one], the Emax amounted to 113% and the EC50 amounted to 382 nM.

Consider `COc1ccc(Cn2ncc3cc(S(=O)(=O)c4cccc(OC(F)F)c4)ccc3c2=O)cn1` [Example 170, 6-(3-(difluoromethoxy)phenylsulfonyl)-2-((6-methoxypyridin-3-yl)methyl)phthalazin-1(2H)-one], for which the Emax was found to be 101% and the EC50 stood at 82 nM.

Turning to `NC(=O)c1occc1Cn1ncc2cc(S(=O)(=O)c3ccccc3)ccc2c1=O` [Example 85, 3-((1-oxo-6-(phenylsulfonyl)phthalazin-2(1H)-yl)methyl)furan-2-carboxamide], the Emax is 113% and the EC50 was 71.5 nM.

Regarding `O=c1c2ccc(S(=O)(=O)c3ccccc3)c(NCCO)c2cnn1Cc1cccnc1O` [Example 247, 5-((2-hydroxyethyl)amino)-2-((2-hydroxypyridin-3-yl)methyl)-6-(phenylsulfonyl)phthalazin-1(2H)-one], the Emax is 103% and the EC50 is 252 nM.

For `COc1ccc(Cn2ncc3cc(S(=O)(=O)c4ccc5c(c4)OC(F)(F)O5)ccc3c2=O)cn1` [Example 156], the Emax stood at 88.7% and the EC50 stood at 91 nM.

Regarding `Cc1cc(Cn2ncc3cc(S(=O)(=O)c4cnn(C)c4)ncc3c2=O)n[nH]1` [Example 331], the Emax was 93.3% and the EC50 was determined as 167 nM.

With `COc1ccc(Cn2ncc3cc(S(=O)(=O)c4ccn5ccnc5c4)ccc3c2=O)cn1` [Example 184, 6-(imidazo[1,2-a]pyridin-7-ylsulfonyl)-2-((6-methoxypyridin-3-yl)methyl)phthalazin-1(2H)-one], the Emax was 59.6% and the EC50 turned out to be 638 nM.

`COc1ccc(S(=O)(=O)c2ccc3c(=O)n(Cc4ccc(OC)nc4)ncc3c2)nc1` [Example 172, 6-(5-methoxypyridin-2-ylsulfonyl)-2-((6-methoxypyridin-3-yl)methyl)phthalazin-1(2H)-one]: the maximal response (Emax) came out at 84.1% and the EC50 came out at 61.9 nM.

Turning to `O=c1c2ccc(S(=O)(=O)c3ccccc3)cc2cnn1Cc1cc(C2CC2)[nH]n1` [Example 25, 2-((5-cyclopropyl-1H-pyrazol-3-yl)methyl)-6-(phenylsulfonyl)phthalazin-1(2H)-one], the Emax worked out at 126% and the EC50 was 198 nM.

On to `COc1cccc(Cn2ncc3cc(S(=O)(=O)c4cn[nH]c4)ccc3c2=O)n1` [Example 294, 6-((1H-pyrazol-4-yl)sulfonyl)-2-((6-methoxypyridin-2-yl)methyl)phthalazin-1(2H)-one], for which the Emax was 104% and the EC50 stood at 150 nM.

Regarding `O=c1c2ccc(S(=O)(=O)c3cn[nH]c3)cc2cnn1Cc1ccc2c(n1)OCCO2` [Example 344], the Emax worked out at 107% and the EC50 amounted to 31.5 nM.

As for `O=c1c2ccc(S(=O)(=O)c3ccc4c(n3)OCCO4)cc2cnn1Cc1cc[nH]n1` [Example 229, 2-((1H-pyrazol-3-yl)methyl)-6-((2,3-dihydro-[1,4]dioxino[2,3-b]pyridin-6-yl)sulfonyl)phthalazin-1(2H)-one], the Emax was 94.7% and the EC50 was determined as 44.9 nM.

On to `COc1ccc(Cn2ncc3cc(S(=O)(=O)c4csc(C(N)=O)c4)ccc3c2=O)cn1` [Example 118, 4-(2-((6-methoxypyridin-3-yl)methyl)-1-oxo-1,2-dihydrophthalazin-6-ylsulfonyl)thiophene-2-carboxamide], for which the Emax was determined as 93.2% and the half-maximal effective concentration (EC50) was 60.2 nM.

Regarding `O=c1c2ccc(S(=O)(=O)c3cnn(C4COC4)c3)cc2cnn1Cc1ccc2c(n1)CCO2` [Example 334], the Emax amounted to 96.8% and the EC50 was 23.3 nM.

`COc1ccc(Cn2ncc3cc(S(=O)(=O)c4cnc(OC)cn4)ccc3c2=O)cn1` [Example 177, 6-(5-methoxypyrazin-2-ylsulfonyl)-2-((6-methoxypyridin-3-yl)methyl)phthalazin-1(2H)-one]: the Emax was 79% and the EC50 was 209 nM.

As for `COc1ccc(Cn2ncc3cc(S(=N)(=O)c4ccc5c(c4)CCO5)ccc3c2=O)cn1` (racemic) [Example 127, 6-(2,3-dihydrobenzofuran-5-sulfonimidoyl)-2-((6-methoxypyridin-3-yl)methyl)phthalazin-1(2H)-one], the Emax worked out at 68.3% and the EC50 turned out to be 43.3 nM.

Take `Cc1cccc(Cn2ncc3cc(S(=O)(=O)c4csc([C@H](C)O)n4)ccc3c2=O)n1` (single isomer, unassigned) [Example 297]: the Emax was 94.7% and the 50% effective concentration (EC50) amounted to 103 nM.

With `Cn1cc(S(=O)(=O)c2cnc3c(=O)n(Cc4cc[nH]n4)ncc3c2)cn1` [Example 267, 7-((1H-pyrazol-3-yl)methyl)-3-((1-methyl-1H-pyrazol-4-yl)sulfonyl)pyrido[2,3-d]pyridazin-8(7H)-one], the Emax amounted to 83.5% and the EC50 was determined as 481 nM.

Consider `Cn1ccc(S(=O)(=O)c2ccc3c(=O)n(Cc4cccc(OC(F)F)c4)ncc3c2)n1` [Example 198, 2-(3-(difluoromethoxy)benzyl)-6-((1-methyl-1H-pyrazol-3-yl)sulfonyl)phthalazin-1(2H)-one], for which the Emax came to 74% and the EC50 was determined as 100 nM.

Turning to `O=c1c2ccc(S(=O)(=O)c3cn[nH]c3)cc2cnn1Cc1cnc2c(c1)CCO2` [Example 293, 6-(1H-pyrazol-4-ylsulfonyl)-2-((2,3-dihydrofuro[2,3-b]pyridin-5-yl)methyl)phthalazin-1(2H)-one], the Emax worked out at 67.5% and the EC50 worked out at 858 nM.

As to `Cc1c(Cn2ncc3cc(S(=O)(=O)c4cnn(C)c4)ccc3c2=O)nn2c1OCC2` [Example 355], the Emax was 101% and the EC50 came to 39.4 nM.
